Results: article PMC2889824, “Structural Optimization and De Novo Design of Dengue Virus Entry Inhibitory Peptides” (PLoS Neglected Tropical Diseases, 2010)
Where two headings read alike, the source gives them in different places. Where no end group is shown, it is not given here.

Assays:
DENV-2 strain NG-C [1] = settings: cited from earlier work; for DENV inhibitory activity of wild type mimic peptides (in words): previous work; for IC50: previously tested wild type peptides denoted with an asterisk, read-out: IC50 (did not achieve 50% inhibition), previously tested wild type peptides
Description: Table 1 Sequences and IC50 values of peptides. | column: IC50 (µM) || We had previously identified several E protein regions where peptides mimicking the E protein sequence might function as inhibitors. […] These included a peptide derived from the domain II fusion sequence (DN80, corresponding to amino acids 96–114 in the DENV-2 E protein) and two overlapping peptides derived from the domain II hinge region (DN57 and DN81, corresponding to amino acids 205–223 and 205–232, respectively). Predictions from crystal structures, [14], [15], as well as the previously confir ...

[2] = system: DENV-2 binding to LLC-MK2 cells; experiment: Virus:cell binding inhibition assay (qRT-PCR); type: cell-based, dengue virus-2 (DENV-2); settings: virus pre-incubated 1 h 4°C, bound to LLC-MK2 2 h 4°C, washed, compared to control virus without peptide
Procedure: Binding inhibition assays were modified from Thaisomboonsuk, et al.}. Briefly, LLC-MK2 monolayers were rinsed in 4°C DMEM containing 0.8% BSA and 25 mM HEPES, pH 7.5. Virus was incubated at 4°C with peptides, control anti-dengue serum, or heparan sulfate in DMEM/BSA/HEPES for one hour before adding to the monolayers for 2 hours at 4°C. Monolayers were rinsed 3 times with cold DMEM/BSA/HEPES media prior to RNA extraction using the Qiagen RNeasy mini kit (Valencia, CA) per manufacturers instructions. Quantitative, real time, reverse transcriptase polymerase chain reaction (qRT-PCR) was conducted utilizing the Roche Lightcycler RNA Master SYBR Green 1 qRT-PCR kit (Basel, Switzerland), using primers Den_F (TTAGAGGAGACCCCTCCC) and Den_R ([…]) from Chutinimitkul et al.}. and the following cycling conditions: 1 h at 61°C, 30 s at 95°C, followed by 45 cycles of: 5 s at 95°C, 20 s at 61°C, and 30 s at 72°C. Cp values were used to estimate infectious units according to a standard curve. Independent assays were repeated three times, in duplicate or triplicate.

LLC-MK2 cells = type: cell-based, Macaca mulatta
Procedure: Cytotoxicity of peptides was measured by monitoring mitochondrial reductase activity using the TACS™ MTT cell proliferation assay (R&D Systems, Inc., Minneapolis, MN) according to the manufacturer's instructions. Dilutions of peptides in serum-free DMEM were added to confluent monolayers of LLC-MK2 cells in 96-well plates for 1 h at 37°C, similar to the focus forming inhibition assays, and incubated at 37°C with 5% (v/v) CO2 for 24 h. Absorbance at 560 nm was measured using a Tecan GeniosPro plate reader (Tecan US, Durham, NC).

DENV-2 strain NG-C [3] = type: cell-based, dengue virus-2 (DENV-2); settings: for maximum inhibition: 24 h; for inhibition of DENV-2 infection (in words): DENV-2 NG-C, any concentration tested
Procedure: LLC-MK2 target cells were seeded at a density of 1×10^5 cells in each well of a 6-well plate 24 h prior to infection. Approximately 200 focus forming units (FFU) of virus were incubated with or without peptide in serum-free DMEM for 1 h at rt. Virus/peptide or virus/control mixtures were allowed to infect confluent target cell monolayers for 1 h at 37°C, with rocking every 15 m, after which time the medium was aspirated and overlaid with fresh DMEM/10% (v/v) FBS containing 0.85% (w/v) Sea-Plaque Agarose (Cambrex Bio Science, Rockland, ME) without rinsing. Cells with agar overlays were incubated at 4°C for 20 m to set the agar. Infected cells were then incubated at 37°C with 5% CO2 for 5 days. Infected cultures were fixed with 10% formalin overnight at 4°C, permeablized with 70% (v/v) ethanol for 20 m, and rinsed with phosphate buffered saline, pH 7.4 (PBS) prior to immunostaining. Virus foci were detected using a specific mouse mAb from hybridoma E60 (obtained from M. Diamond at Washington University), followed by horseradish peroxidase-conjugated goat anti-mouse immunoglobulin (Pierce, Rockford, IL), and developed using AEC chromogen substrate (Dako, Carpinteria, CA). Results are expressed as the average of at least two independent trials with three replicates each. IC50 values were determined using variable slope sigmoidal dose-response curve fits with GraphPad Prism 4.0 software (LaJolla, CA), except for DN81opt, which was determined graphically due to a lack of data points to produce a reasonable curve fit.

[4] = target: T1, purified, recombinant, 80% truncated DENV-2 S1 E protein (Dengue virus type 2, UniProt P12823); experiment: biochemical; type: binding, DENV-2 strain S1; settings: for kon: read-out: association rate constant ka; for koff: read-out: dissociation rate constant kd
T1 construct: Purified, recombinant, 80% truncated DENV-2 S1 E protein was obtained from Hawaii Biotechnology; purchased Hawaii Biotechnology (Honolulu, HI)
Procedure: Real time binding assays between peptides and purified DENV-2 S1 E protein were performed using biolayer interferometry on an Octet QK system (Fortebio, Menlo Park, CA). This system monitors interference of light reflected from the surface of a fiber optic sensor to measure the thickness of molecules bound to the sensor surface. Purified, recombinant, 80% truncated DENV-2 S1 E protein was obtained from Hawaii Biotechnology (Honolulu, HI). Peptides were N-terminally biotinylated with a 5∶1 molar ratio of NHS-LC-LC-Biotin (Pierce/ThermoFisher, Rockford, IL) in PBS pH 6.5 at 4°C. Excess biotinylation reagent was removed using Pepclean C-18 spin columns (Pierce/ThermoFisher, Rockford, IL). Biotinylated peptides were coupled to kinetics grade streptavidin high binding biosensors (Fortebio, Menlo Park, CA) at several different concentrations. Sensors coated with peptides were allowed to bind to E protein in PBS with 0.02% (v/v) Tween-20 and 1 mg/ml BSA at several different E protein concentrations. Binding kinetics were calculated using the Octet QK software package, which fit the observed binding curves to a 1∶1 binding model to calculate the association rate constants. E protein was allowed to dissociate by incubation of the sensors in PBS. Dissociation curves were fit to a 1∶1 model to calculate the dissociation rate constants. Binding affinities were calculated as the kinetic dissociation rate constant divided by the kinetic association rate constant.

[5] = MTT, confluent LLC-MK2, 24 h post-exposure, any concentration tested, one-way ANOVA, P>0.05
[6] = FFU reduction, DENV-2 NG-C on LLC-MK2 cells, dashed line = tested, 50% inhibition not achieved, read-out: IC50 (did not achieve 50% inhibition)

AWLVHRQWFLDLPLPWLPG [DN81wt, previously tested wild type peptide from the domain II hinge region]
DENV inhibitory activity of wild type mimic peptides (in words) (DENV-2 strain NG-C [1]): did not show substantial DENV inhibitory activity
IC50 (DENV-2 strain NG-C [1]): > 50 µM

heparan sulfate
virus:cell binding [2]: reduced cell binding

FWFTLIKTQAKQPARYRRFC [1OAN1]
cellular toxicity (LLC-MK2 cells; [5]): not toxic at any concentration tested
IC50 (DENV-2 strain NG-C [3]; -2 strain NG-C, 1 h): 7 ± 4 µM
maximum inhibition (DENV-2 strain NG-C [3]; -2 strain NG-C, 50 µM): 99%
Kd [4]: 0.45 µM
kon [4]: 3900 M⁻¹ s⁻¹
koff [4]: 0.0016 s⁻¹

AWLVHTQWFLDLPLPWLPGADTQGSNWI [DN57wt, previously tested wild type peptide from the DENV-2 E domain II hinge region]
DENV inhibitory activity of wild type mimic peptides (in words) (DENV-2 strain NG-C [1]): did not show substantial DENV inhibitory activity
IC50 (DENV-2 strain NG-C [1]): > 50 µM

YPENLEYRVYITPHPGEEHH [1OAN2, de novo designed peptide, E protein region 131–150]
IC50 (DENV-2 strain NG-C [3]; [6]): > 50 µM

QQCFRFPALRKKATYTRFWI [1OAN1-scram, scrambled version of 1OAN1 of identical composition]
cellular toxicity (LLC-MK2 cells; [5]): not toxic at any concentration tested
IC50 (DENV-2 strain NG-C [3]; [6]): > 50 µM
inhibition of DENV-2 infection (in words) (DENV-2 strain NG-C [3]; FFU reduction): did not inhibit infection by DENV-2 at any concentration tested

RWMVWRHWFHRLRLPYNPGKNKQNQQWP [DN57opt]
cellular toxicity (LLC-MK2 cells): mildly toxic
IC50 (DENV-2 strain NG-C [3]; -2 strain NG-C, 1 h): 8 ± 1 µM
maximum inhibition (DENV-2 strain NG-C [3]; -2 strain NG-C, 20 µM): 97%
Kd [4]: 1.2 µM
kon [4]: 800 M⁻¹ s⁻¹
koff [4]: 0.00077 s⁻¹

WHTVEPIVTEKDRPVNYEWE [1OAN4, de novo designed peptide, E protein region 351–370]
IC50 (DENV-2 strain NG-C [3]; [6]): > 50 µM

RWRHLKKMQRLQPRNPNWPGQFWVHYNW [DN57opt-scram, scrambled version of DN57opt of identical composition]
cellular toxicity (LLC-MK2 cells; [5]): not toxic at any concentration tested
IC50 (DENV-2 strain NG-C [3]; [6]): > 50 µM
inhibition of DENV-2 infection (in words) (DENV-2 strain NG-C [3]; FFU reduction): did not display inhibition at any concentration tested

RQMRAWGQDYQHGGMGYSC [DN81opt]
IC50 (DENV-2 strain NG-C [3]; -2 strain NG-C, 1 h): 36 ± 6 µM
maximum inhibition (DENV-2 strain NG-C [3]; -2 strain NG-C, 50 µM): 57%

MVIVQHQWMQIMRWPWQPE [DN80opt]
IC50 (DENV-2 strain NG-C [3]; [6]): > 50 µM

EWSKHREGRWHTALTGATEI [1OAN3, de novo designed peptide, E protein region 251–270]
IC50 (DENV-2 strain NG-C [3]; [6]): > 50 µM
